pEC50, pIC50: −log10 of the molar value. Like-named read-outs stand apart in the source and are kept apart here.
Tests used:
[1] = system: SYK dependent basophil degranulation (CD63 surface expression on basophils in whole blood); assay: CD63-assay (cellular assay for SYK-inhibition) in whole blood; format: cell-based
Method: In this assay, IgE raised against dinitrophenol (DNP) is incubated in whole blood where it binds to the FcεR1 on basophils. […] CD63 normally resides on the intracellular granule membrane within basophils, which upon degranulation, is then expressed on the surface where it can be detected by flow cytometry. Surface expression of CD63 correlates extremely well with the release of histamine from basophils. The CD63 assay has previously been validated as a clinical target engagement biomarker in the Fostamatinib SYK program (Braselmann et al, J. Pharm. Exp. Therap. 319:998-1008, 2006). Heparinized whole blood is mixed gently (vortex mixer) and […] per test aliquoted into a 96 well plate. Anti-DNP (1 mg/ml) is diluted 1:100 with PBS/0.1% HSA to 10 μg/ml (final concentration: 1 μg/mL). Pre-dilute DNP/BSA (5 mg/ml) to a concentration of 60 ng/ml with washing solution. Compounds: […] Reagents are provided from the Basotest® kit. Incubate 10 μl of 10 μg/ml anti DNP and 10 μl of compound with 100 μl whole blood in a 37° C. pre-warmed water bath. After 30 minutes, 20 μl of STIMULATION BUFFER is added to the whole blood samples and vortexed gently. Incubate the samples for 10 min at 37° C. in a water bath. 100 μl of DNP/BSA is added per test to the whole blood. Add 100 μl of the WASHING SOLUTION to a further test tube as a negative control. Add 100 μl of DNP/BSA (final 30 ng/ml) in the compound tubes. All tubes are mixed once more. The samples are incubated for 20 min at 37° C. in a water bath. Stop degranulation by incubating the samples on ice for 5 min. Add 20 μl of STAINING REAGENT to each tube. Vortex and incubate the tubes for 20 min in an ice bath, covered to prevent exposure to light. The whole blood samples are lysed and fixed with 2 ml of pre-warmed (room temperature) 1×LYSING SOLUTION. Vortex and incubate for 10 min at room temperature. Spin down cells (5 min, 250×g, 4° C.). Discard the supernatant. Add 3 ml of WASHING SOLUTION to the tubes. Centrifuge the tubes (5 min, 250×g, 4° C.). Aspirate the supernatant. Add 200 μl WASHING SOLUTION to the cell pellet, vortex. Incubate the tubes in a covered ice bath until analysis. Cells are analysed by flow cytometry using the blue-green excitation light (488 nm argon-ion laser). Acquire data by using fluorescence triggering in the FL2 channel (PE) to gate on basophilic granulocytes expressing high amounts of IgE. This live gating reduces the amount of data and saves memory capacity. Acquire at least 500 basophils per sample. For data evaluation and calculation, the measurement of the negative control (unstimulated blood) was set as 100% control and the measurement of the positive control (DNP/anti-DNP stimulated blood) was set as 0% control. Based on these values the % value for the measurement of each substance concentration was calculated, a concentration-effect curve fitted and an EC50 value calculated using GraphPad Prism version 6.01 for Windows. The EC50 value was calculated using a nonlinear fitting (log(inhibitor) vs. response—variable slope). Normally, the % control values calculated are between 0% and 100% values but may also occur outside these limits in individual cases based on variability or compound characteristics.

[2] = target: Recombinant human Aurora B (amino acids 1-344) (Homo sapiens (Human), UniProt Q96GD4); assay: Aurora B kinase test (ADP Glo); format: biochemical
Chain of Recombinant human Aurora B (amino acids 1-344) (Q96GD4 whole entry, the tested form may be a part): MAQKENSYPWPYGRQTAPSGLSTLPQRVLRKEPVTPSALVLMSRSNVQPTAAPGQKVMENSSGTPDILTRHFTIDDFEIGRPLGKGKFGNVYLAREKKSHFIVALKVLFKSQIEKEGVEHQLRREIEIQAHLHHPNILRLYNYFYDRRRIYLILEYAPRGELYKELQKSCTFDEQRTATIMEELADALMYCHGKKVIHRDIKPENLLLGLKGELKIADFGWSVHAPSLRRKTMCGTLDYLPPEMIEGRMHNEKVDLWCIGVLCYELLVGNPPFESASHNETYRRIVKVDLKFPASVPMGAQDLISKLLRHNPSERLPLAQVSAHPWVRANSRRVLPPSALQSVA
Method: The activity of the Aurora B kinase protein was determined using the ADP Glo® Luminescence Kinase test (Promega; V9103X). In this homogeneous test the amount of ADP remaining after the kinase reaction is quantified by a luciferin-luciferase reaction using luminescence. The luminescence signal obtained correlates with the amount of ADP still present and thus correlates with the activity of the protein kinase.
The test compounds were dissolved in 100% DMSO at a concentration of 10 mM and diluted in DMSO to a concentration of 5 mM. Serial Dilution is done in 1:10 steps in 100% DMSO. All further dilutions of the substances were carried out with test buffer (50 mM Hepes, pH 7.5, 10 mM MgCl2, 1 mM EGTA, 60 μM Ultra Pure ATP, 0.01% Brij35, 0.1% BSA, 5 mM 8-Glycerophosphate) until a concentration was reached which was 2.5 times above the final test concentration (final concentration of the compounds: 50 μM to 0.005 nM). 4 μl aliquots of these dilutions were transferred into a 384-well Optiplate (Perkin Elmer, #6007290). His-Aurora B was diluted to 125 nM in the test buffer and 4 μl of this dilution were used in the kinase test (final concentration of Aurora B=50 nM in a total volume of 10 μl). After 15 minutes incubation at room temperature 2 μl of 250 μM substrate ([[…]]; University of Dundee) in test buffer were added to each well and the incubation was continued for a further 60 minutes at room temperature.
Positive controls are the reaction mixtures that contain no test substance; negative controls (blanks) are reaction mixtures that contain no kinase.
After 60 minutes, 10 μl ADP-Glo® solution (ADP-Glo Reagent #V912B Promega) (heated to room temperature) were added to each well and incubation was continued for a further 40. minutes. Then 20 μl Kinase detection mix (Detection Buffer #V913B Promega; Kinase Detection Substrate #V914B Promega) were added and incubated for 40 minutes at room temperature. The plates were read in Envision Luminescence Reader (Perkin-Elmer).
The output file of the reader is a csv file that contains the well number and measured RLU. For data evaluation and calculation, the measurement of the negative control was set as 0% ctrl and the measurement of the positive control was set as 100% ctrl. Based on this values the % value for the measurement of each substance concentration can be calculated using an Assay Explorer software (e.g. Accelrys). Normally, the % ctrl values calculated are between 0% and 100% values but may also occur outside these limits in individual cases based on variability or compound characteristics. The IC50-values were calculated from the % ctrl values using Assay Explorer software. Calculation: [y=(a−d)/(1+(x/c)^b)+d], a=low value, d=high value; x=conc M; c=IC50 M; b=hill; y=% ctrl.

[3] = whole blood, DNP/anti-DNP stimulated basophils, read-out: CD63 assay EC50-value (chapter 5.2)
[4] = read-out: AURB inhibition IC50-value (chapter 5.3)

Row | Structure (SMILES) | pEC50 ([1]; read-out: EC50 in CD63-assay) | pEC50 [1, 3] | selectivity ratio IC50(AURB)/IC50(SYK) [2] | pIC50 [2, 4] | pIC50 ([2]; read-out: IC50(AURB))
1 | Cc1cnn2cc(-c3cnn(C(C)(C)C)c3)cc(O[C@H](C)[C@H]3CNC(=O)C3)c12 [example 6.09 on page 559 of WO15017610, reference compound] | > 6.82 | 7.70 | 370 | 7.43 | 7.43
2 | C[C@@H](Oc1cc(-c2cnn(C(C)(C)C)c2)cc2ncn(C)c12)[C@H]1CNC(=O)C1 [example 3B.22 on page 219 of WO15017610, reference compound] | > 6.82 | 7.54 | 964 | 6.11 | 6.11
3 | C[C@@H](Oc1nc(-c2cnn(C(C)(C)C)c2)cc2ncn(C)c12)[C@H]1CNC(=O)C1 [example 3A.02, on page 196 of WO15017610, reference compound] | > 6.82 | 7.38 | 891 | 5.77 | 5.77
4 | Cc1c2c(O[C@H](C)[C@H]3CNC(=O)C3)cc(-c3cnn(CC(C)C)c3)cc2nn1C [Example 19, (R)-4-{(R)-1-[6-(1-Isobutyl-1H-pyrazol-4-yl)-2,3-dimethyl-2H-indazol-4-yloxy]-ethyl}-pyrrolidin-2-one] | – | 6.97 | 13212 | 4.62 | –
5 | C[C@@H](Oc1cc(-c2cnn(CCC(F)(F)F)c2)cc2nn(C)c(F)c12)[C@H]1CNC(=O)C1 [Example 12, (R)-4-((R)-1-{3-Fluoro-2-methyl-6-[1-(3,3,3-trifluoro-propyl)-1H-pyrazol-4-yl]-2H-indazol-4-yloxy}-ethyl)-pyrrolidin-2-one] | – | 7.17 | 10207 | 4.53 | –
6 | C[C@@H](Oc1cc(-c2cnn(C3CC(C)(C)OC3(C)C)c2)cc2nn(C)c(F)c12)[C@H]1CNC(=O)C1 (stereo partly drawn) [Example 14, (R)-4-((R)-1-{3-Fluoro-2-methyl-6-[1-(2,2,5,5-tetramethyl-tetrahydro-furan-3-yl)-1H-pyrazol-4-yl]-2H-indazol-4-yloxy}-ethyl)-pyrrolidin-2-one] | – | 7.12 | 15625 | 4.30 | –
7 | C[C@@H](Oc1cc(-c2cnn(CC3CC3)c2)cc2nn(C)c(F)c12)[C@H]1CNC(=O)C1 [Example 6, (R)-4-{(R)-1-[6-(1-Cycloprop-ylmethyl-1H-pyrazol-4-yl)-3-fluoro-2-methyl-2H-indazol-4-yloxy]-ethyl}-pyrrolidin-2-one] | – | 7.38 | 13115 | 4.47 | –
8 | Cc1c2c(O[C@H](C)[C@H]3CNC(=O)C3)cc(-c3cnn(C(C)(C)C)c3)cc2nn1C [Example 13, (R)-4-{(R)-1-[6-(1-tert-Butyl-1H-pyrazol-4-yl)-2,3-dimethyl-2H-indazol-4-yloxy]-ethyl}-pyrrolidin-2-one] | – | 7.24 | 39982 | 4.44 | –
9 | Cc1c2c(O[C@H](C)[C@H]3CNC(=O)C3)cc(-c3cnn(C4CCC(F)(F)C4)c3)cc2nn1C (stereo partly drawn) [Example 22, (R)-4-((R)-1-{6-[1-(3,3-Difluoro-cyclopentyl)-1H-pyrazol-4-yl]-2,3-dimethyl-2H-indazol-4-yloxy}-ethyl)-pyrrolidin-2-one] | – | 7.17 | 11207 | 4.87 | –
10 | C[C@@H](Oc1cc(-c2cnn(C3CCC3)c2)cc2nn(C)c(F)c12)[C@H]1CNC(=O)C1 [Example 1, (R)-4-{(R)-1-[6-(1-Cyclobutyl-1H-pyrazol-4-yl)-3-fluoro-2-methyl-2H-indazol-4-yloxy]-ethyl}-pyrrolidin-2-one] | – | 7.39 | 34800 | 4.46 | –

Source: patent US10155751B2, “Pyrazolyl-substituted heteroaryls and their use as medicaments” (Boehringer Ingelheim International GmbH, priority 2015, dated 2018)
